Test results as given in ChEMBL document CHEMBL1201862, “PubChem BioAssay data set” (2004).
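These data come from cells grown in 96-well plates and exposed to compound for 48 hours at five concentrations. GI50 = concentration required for 50% inhibition of growth.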 Active and inactive are the calls of the source. No stated cut-off is given here; in the data, active = GI50 up to about 1.1 µM and inactive = higher.

Experiments:
Experiment in all cases: DTP human tumour cell line panel, 48 h
BT-549 = system: BT-549
CCRF-CEM = system: CCRF-CEM
HCT-15 = system: HCT-15
HOP-62 = system: HOP-62
HOP-92 = system: HOP-92
HT-29 = system: HT-29
K562 = system: K562
M14 = system: M14
MDA-N = system: MDA-N
NCI-H460 = system: NCI-H460
NCI/ADR-RES = system: NCI/ADR-RES
OVCAR-3 = system: OVCAR-3
OVCAR-8 = system: OVCAR-8
RXF 393 = system: RXF 393
SF-268 = system: SF-268
SF-539 = system: SF-539
SK-MEL-28 = system: SK-MEL-28
SK-OV-3 = system: SK-OV-3
SN12C = system: SN12C
T47D = system: T47D

Compound | GI50 (BT-549) | GI50 (CCRF-CEM) | GI50 (HCT-15) | GI50 (HOP-62) | GI50 (HOP-92) | GI50 (HT-29) | GI50 (K562) | GI50 (M14) | GI50 (MDA-N) | GI50 (NCI-H460) | GI50 (NCI/ADR-RES) | GI50 (OVCAR-3) | GI50 (OVCAR-8) | GI50 (RXF 393) | GI50 (SF-268) | GI50 (SF-539) | GI50 (SK-MEL-28) | GI50 (SK-OV-3) | GI50 (SN12C) | GI50 (T47D)
NCc1ccccc1.O=C(O)NCc1ccccc1 | 29.5 µM (inactive) | 19.4 µM (inactive) | 30.8 µM | 38 µM (inactive) | 19.6 µM (inactive) | 27.7 µM (inactive) | 24.3 µM (inactive) | 33.9 µM (inactive) | 29.5 µM (inactive) | 26.5 µM (inactive) | 26.9 µM (inactive) | 31.4 µM (inactive) | 37.1 µM (inactive) | 38.5 µM (inactive) | 39.7 µM (inactive) | 41.1 µM (inactive) | 38.2 µM (inactive) | 37.5 µM (inactive) | 31.8 µM (inactive) | 23.9 µM (inactive)
Cc1cc2c(=Cc3ccc(N(C)C)cc3)c3ccccc3n2[n+]1C | 0.537 µM (active) | 0.944 µM (active) | 12.3 µM | 0.656 µM (active) | 0.459 µM (active) | 0.675 µM (active) | 0.227 µM (active) | 1.05 µM (active) | 0.383 µM (active) | 0.393 µM (active) | > 66.4 µM (inactive) | 0.313 µM (active) | 0.313 µM (active) | 2.09 µM (inactive) | 0.537 µM (active) | 0.641 µM (active) | 1.2 µM (inactive) | 1.44 µM (inactive) | 0.304 µM (active) | 0.282 µM (active)
CN(C)c1ccc(Cc2cc3c(O)ccc(O)c3cc(Cc3ccc(N(C)C)cc3)c2=O)cc1 | 13.7 µM (inactive) | 2.96 µM (inactive) | 21.5 µM | 45.7 µM (inactive) | 3.08 µM (inactive) | 19.2 µM (inactive) | 2.96 µM (inactive) | 17.5 µM (inactive) | 18.8 µM (inactive) | 37.4 µM (inactive) | 27 µM (inactive) | 14.3 µM (inactive) | 17.1 µM (inactive) | 9.31 µM (inactive) | 29.6 µM (inactive) | 26.1 µM (inactive) | 18.9 µM (inactive) | > 100 µM (inactive) | 28.2 µM (inactive) | 4.09 µM (inactive)
NCCN1C(=O)CN=C(c2ccc(Cl)cc2)c2cc(Cl)ccc21 | 16 µM (inactive) | 15.5 µM (inactive) | 16.7 µM | 17.3 µM (inactive) | 9.84 µM (inactive) | 16.8 µM (inactive) | 16.3 µM (inactive) | 16.1 µM (inactive) | 16.7 µM (inactive) | 18 µM (inactive) | 15.9 µM (inactive) | 15.5 µM (inactive) | 16.7 µM (inactive) | 11.5 µM (inactive) | 14.4 µM (inactive) | 17.4 µM (inactive) | > 100 µM (inactive) | 22.4 µM (inactive) | 22.5 µM (inactive) | 21.8 µM (inactive)
COc1cc2c(c(O)c1OC)C(O)C1CCC(=O)N1C2c1cccc2ccccc12 (stereo not given) | > 100 µM (inactive) | 81.7 µM (inactive) | > 100 µM | > 100 µM (inactive) | > 100 µM (inactive) | > 100 µM (inactive) | > 100 µM (inactive) | > 100 µM (inactive) | 76.4 µM (inactive) | > 100 µM (inactive) | 54.6 µM (inactive) | > 100 µM (inactive) | > 100 µM (inactive) | 57.9 µM (inactive) | > 100 µM (inactive) | > 100 µM (inactive) | > 100 µM (inactive) | 56.1 µM (inactive) | > 100 µM (inactive) | > 100 µM (inactive)
Cc1ccc(CC(=O)Nc2ccc(NC(=O)CNC(=O)/C=C/c3ccc(-c4ccccc4)cc3)cc2C(=O)c2ccccc2)cc1 | 10.9 µM (inactive) | 4.79 µM (inactive) | 3.69 µM | 2.55 µM (inactive) | 4.17 µM (inactive) | 1.58 µM (inactive) | 3.33 µM (inactive) | 4.81 µM (inactive) | 4.74 µM (inactive) | 2.86 µM (inactive) | 9.71 µM (inactive) | 4.98 µM (inactive) | 1.59 µM (inactive) | 2.38 µM (inactive) | 2.45 µM (inactive) | 2.7 µM (inactive) | 11.7 µM (inactive) | 10.7 µM (inactive) | 2.74 µM (inactive) | 1.76 µM (inactive)
CCN(CC)CCNc1nc(N)c(C#N)c(C#N)c1C#N | > 10 µM (inactive) | > 10 µM (inactive) | > 10 µM | > 10 µM (inactive) | > 10 µM (inactive) | > 10 µM (inactive) | > 10 µM (inactive) | > 10 µM (inactive) | > 10 µM (inactive) | > 10 µM (inactive) | > 10 µM (inactive) | > 10 µM (inactive) | > 10 µM (inactive) | > 10 µM (inactive) | > 10 µM (inactive) | > 10 µM (inactive) | > 10 µM (inactive) | > 10 µM (inactive) | > 10 µM (inactive) | > 10 µM (inactive)
